# Like-named read-outs stand apart in the source and are kept apart here.
# Key:
# Assay type in all cases: in vivo, human
# [1] = BIA 28-6156-107: safety and tolerability
# [2] = LTI-291-003: NeuroCart, MMSE, MDS-UPDRS, EEG; conditions: 10, 30, 60 mg daily for 28 days, GBA-PD
# Protocol: GluCer, GluSph, and LacCer were measured in plasma, PBMCs, and CSF as biomarkers of pharmacological effects. The pharmacodynamic evaluations also consisted of a battery of NeuroCart assessments (Saccadic Eye Movements, Smooth Pursuit Eye Movements, Adaptive Tracking, Body Sway, and Visual Verbal Learning Test); functional outcome measures (MDS-UPDRS Part III, and the MMSE); and pharmaco-EEG.
# [3] = LTI-291-003 multiple dose study in GBA-PD: plasma and CSF pharmacokinetics; conditions: for Tmin / Tmax: median; for Kp at 4 h / Cmax / AUC(0-t) / Tmax: human, oral; for Kp at 4 h: CSF and plasma, after the 28th daily dose, read-out: CSF-to-plasma concentration ratio, mean (SD); for Cmax / AUC(0-t) / Tmax: plasma
# Text: This study was a Phase 1b, randomized, double-blind, placebo-controlled, multiple oral dose study of Compound A in 40 subjects (aged 40 to 80 years) with GBA-PD. Approximately 50% of the enrolled subjects had major (loss of 30%-50% total activity) mutations in GCase and 50% had polymorphism mutation (loss of 10%-20% of total activity) mutations in GCase. The objectives of this study were to investigate the safety, tolerability, and PK of multiple once-daily oral administration of Compound A and to explore the accompanying pharmacodynamic changes in subjects with GBA-PD with major and polymorphism mutations. Subjects received once-daily oral doses of 10 mg (n=10), 30 mg (n=10), or 60 mg (2×30 mg capsules) (n=10) Compound A or placebo (n=10) for 28 consecutive days.
# Blood samples for Compound A concentrations were collected up to 6 hours after the first and last doses. CSF samples for Compound A concentrations were taken before the first dose and 4 hours after the last dose for each dose level.
# [4] = BIA 28-6156-110 DDI, metformin portion; conditions: after 6 days of dosing with 60 mg, metformin portion
# Protocol: In Cohort 2, a single oral dose 500 mg metformin was administered alone on Day 1. From Day 2 to Day 7, a single daily dose of 60 mg Compound A was administered.
# [5] = LTI-291-001 single ascending dose study: plasma pharmacokinetics and food effect; conditions: for Vd/F: read-out: Vz/F
# Protocol: This study was a first-in-human Phase 1, randomized, double-blind, placebo-controlled, single-ascending dose study to evaluate the safety and tolerability, PK, and PD of escalating single oral doses of Compound A (3, 10, 30, and 90 mg) in 4 cohorts of healthy subjects. A total of 32 subjects received a single oral dose of Compound A (8 per dose group) and 8 subjects received placebo. The effect of food on the PK of Compound A was evaluated by administering a second single oral dose of 10 mg Compound A to the subjects in Cohort 2 on a separate occasion, after subjects had completed a high-fat breakfast. Blood samples for Compound A PK were collected up to 48 hours after each dose.
# [6] = 10 mg daily, dose 28, GBA-PD, geometric mean
# [7] = 30 mg daily, dose 1, GBA-PD, geometric mean
# [8] = 30 mg daily, dose 28, GBA-PD, geometric mean
# [9] = 60 mg daily, dose 1, GBA-PD, geometric mean
# [10] = 60 mg daily, dose 28, GBA-PD, geometric mean
# [11] = 3 mg fasted, single oral dose, geometric mean
# [12] = 10 mg fasted, single oral dose, geometric mean
# [13] = 10 mg fed, single oral dose, geometric mean
# [14] = 10 mg, high-fat breakfast vs fasted
# [15] = 30 mg fasted, single oral dose, geometric mean
# [16] = 90 mg fasted, single oral dose, geometric mean
# [17] = human, plasma, po, 3 mg, 3 mg fasted, single oral dose, geometric mean
# [18] = human, plasma, po, 10 mg, 10 mg fasted, single oral dose, geometric mean
# [19] = human, plasma, po, 10 mg, 10 mg fed, single oral dose, geometric mean
# [20] = human, plasma, po, 30 mg, 30 mg fasted, single oral dose, geometric mean
# [21] = human, plasma, po, 90 mg, 90 mg fasted, single oral dose, geometric mean
structure (smiles),measurement,setting,value
"CCCCCO[C@H]1CC[C@H](NC(=O)c2cnn3c(C)cc(C)nc23)CC1 [Compound A, 5,7-dimethyl-N-((1S*,4S)-4-(pentyloxy)cyclohexyl)pyrazolo[1,5-a]pyrimidine-3-carboxamide]",AEs,[1]; 60 mg Compound A with 25 mg/100 mg immediate-release carbidopa-levodopa,No AEs were reported
same,subjects reporting AEs,[1]; 60 mg Compound A with 300 mg extended-release carbamazepine,25.0%
same,subjects reporting AEs,"[1]; after 60 mg Compound A alone, 12 subjects",16.7%
same,SAEs,[1]; in vivo,No SAEs were reported
same,"vital signs, physical examinations, ECG parameters, C-SSRS",[1]; in vivo,no clinically significant safety observations
same,"effects on NeuroCart tests, MMSE, MDS-UPDRS, EEG",[2],no dose-dependent effects
same,Cmax/dose,"[3]; 10 mg daily, dose 1, GBA-PD, geometric mean",25.4 ng/mL/mg
same,AUC0-last/dose,"[3]; 10 mg daily, dose 1, GBA-PD, geometric mean (% CV)",109 (32.8) ng · h/mL mg
same,AUC0-last/dose,[3]; [6],252 ng·h/mL/mg
same,Cmax/dose,[3]; [6],52.0 ng/mL/mg
same,Cmin,[3]; [6],246 ng/mL
same,Tmin,"[3]; 10 mg daily, dose 28, GBA-PD",26.3 h
same,AUC0-last/dose,[3]; [7],76.8 ng·h/mL/mg
same,Cmax/dose,[3]; [7],18.7 ng/mL/mg
same,AUC0-last/dose,[3]; [8],241 ng·h/mL/mg
same,Cmax/dose,[3]; [8],47.9 ng/mL/mg
same,Cmin,[3]; [8],788 ng/mL
same,Tmin,"[3]; 30 mg daily, dose 28, GBA-PD",26.1 h
same,AUC0-last/dose,[3]; [9],102 ng·h/mL/mg
same,Cmax/dose,[3]; [9],25.5 ng/mL/mg
same,Cmax/dose,[3]; [10],46.6 ng/mL/mg
same,Cmin,[3]; [10],1370 ng/mL
same,AUC0-last/dose,"[3]; 60 mg daily, dose 28, GBA-PD, geometric mean (% CV)",234 (15.7) ng · h/mL mg
same,Tmin,"[3]; 60 mg daily, dose 28, GBA-PD",26.0 h
same,total exposure (Cmax and AUC0-last) versus dose,"[3]; 10 to 60 mg, after 1st and 28th dose",increase in a dose proportional manner
same,time of peak plasma concentrations (median),[3]; after the 1st and 28th daily dose,2.0 h
same,Kp at 4 h,[3]; 10 mg,0.0113
same,Kp at 4 h,[3]; 30 mg,0.0122
same,Kp at 4 h,[3]; 60 mg,0.0115
same,Cmax,"[3]; 10 mg, 10 mg daily, dose 1, GBA-PD, geometric mean (% CV)",254 ng/mL
same,AUC(0-t),"[3]; 10 mg, 10 mg daily, dose 1, GBA-PD, geometric mean, read-out: AUC0-6",1080 ng·h/mL
same,AUC(0-t),"[3]; 10 mg, 10 mg daily, dose 1, GBA-PD, geometric mean, read-out: AUC0-last",1090 ng·h/mL
same,Cmax,"[3]; 10 mg, 10 mg daily, dose 28, GBA-PD, geometric mean",520 ng/mL
same,AUC(0-t),"[3]; 10 mg, 10 mg daily, dose 28, GBA-PD, geometric mean, read-out: AUC0-6",2520 ng·h/mL
same,AUC(0-t),"[3]; 10 mg, 10 mg daily, dose 28, GBA-PD, geometric mean, read-out: AUC0-last",2520 ng·h/mL
same,Cmax,"[3]; 30 mg, 30 mg daily, dose 1, GBA-PD, geometric mean (% CV)",561 ng/mL
same,AUC(0-t),"[3]; 30 mg, 30 mg daily, dose 1, GBA-PD, geometric mean, read-out: AUC0-6",2300 ng·h/mL
same,AUC(0-t),"[3]; 30 mg, 30 mg daily, dose 1, GBA-PD, geometric mean, read-out: AUC0-last",2300 ng·h/mL
same,Cmax,"[3]; 30 mg, 30 mg daily, dose 28, GBA-PD, geometric mean",1440 ng/mL
same,AUC(0-t),"[3]; 30 mg, 30 mg daily, dose 28, GBA-PD, geometric mean, read-out: AUC0-6",7230 ng·h/mL
same,AUC(0-t),"[3]; 30 mg, 30 mg daily, dose 28, GBA-PD, geometric mean, read-out: AUC0-last",7230 ng·h/mL
same,Cmax,"[3]; 60 mg, 60 mg daily, dose 1, GBA-PD, geometric mean",1530 ng/mL
same,AUC(0-t),"[3]; 60 mg, 60 mg daily, dose 1, GBA-PD, geometric mean, read-out: AUC0-6",6080 ng·h/mL
same,AUC(0-t),"[3]; 60 mg, 60 mg daily, dose 1, GBA-PD, geometric mean, read-out: AUC0-last",6100 ng·h/mL
same,Cmax,"[3]; 60 mg, 60 mg daily, dose 28, GBA-PD, geometric mean",2790 ng/mL
same,AUC(0-t),"[3]; 60 mg, 60 mg daily, dose 28, GBA-PD, geometric mean, read-out: AUC0-6",14100 ng·h/mL
same,AUC(0-t),"[3]; 60 mg, 60 mg daily, dose 28, GBA-PD, geometric mean, read-out: AUC0-last",14100 ng·h/mL
same,Tmax,"[3]; 10 mg daily, dose 1, GBA-PD",2 h
same,Tmax,"[3]; 30 mg daily, dose 1, GBA-PD",2 h
same,Tmax,"[3]; 60 mg daily, dose 1, GBA-PD",2 h
same,PK in healthy subjects versus subjects with GBA-PD,[3]; in vivo,similar
same,steady state concentrations of Compound A,[4],appeared not to have been reached
same,AUC0-inf/dose,[5]; [11],754 ng·h/mL/mg
same,Cmax/dose,[5]; [11],36.4 ng/mL/mg
same,AUC0-inf/dose,[5]; [12],756 ng·h/mL/mg
same,Cmax/dose,[5]; [12],32.8 ng/mL/mg
same,Tmax,"[5]; 10 mg fasted, single oral dose, median",1.01 h
same,AUC0-inf/dose,[5]; [13],853 ng·h/mL/mg
same,Cmax/dose,[5]; [13],23.4 ng/mL/mg
same,"ratio of geometric means fed to fasting, AUC0-inf",[5]; [14],111%
same,"ratio of geometric means fed to fasting, AUC0-last",[5]; [14],103%
same,"ratio of geometric means fed to fasting, Cmax",[5]; [14],71.3%
same,AUC0-inf/dose,[5]; [15],821 ng·h/mL/mg
same,Cmax/dose,[5]; [15],32.0 ng/mL/mg
same,AUC0-inf/dose,[5]; [16],704 ng·h/mL/mg
same,Cmax/dose,[5]; [16],29.4 ng/mL/mg
same,total exposure (Cmax and AUC0-inf) versus dose,[5]; entire dose range 3-90 mg,increase in a dose proportional manner
same,half-life,"[5]; human, plasma, oral, across fasted and fed groups, read-out: Geometric mean t1/2",21.2 to 23.4 h
same,Tmax,"[5]; human, plasma, oral, single dose 3-90 mg, fasted, medians across dose groups, read-out: median Tmax",1 to 3 h
same,Tmax,"[5]; human, plasma, oral, single dose 3-90 mg, fasted, minimum to maximum, read-out: Tmax, range",1 to 8.2 h
same,AUC(0-inf),[5]; [17],2260 ng·h/mL
same,AUC(0-t),[5]; [17],1560 ng·h/mL
same,Cmax,[5]; [17],109 ng/mL
same,Vd/F,[5]; [17],40.5 L
same,half-life,"[5]; human, plasma, po, 3 mg, 3 mg fasted, single oral dose, geometric mean, read-out: t1/2 (converted)",21.2 h
same,Tmax,"[5]; human, plasma, po, 3 mg, 3 mg fasted, single oral dose, median, read-out: Tmax",1.48 h
same,AUC(0-inf),[5]; [18],7560 ng·h/mL
same,AUC(0-t),[5]; [18],5690 ng·h/mL
same,Cmax,[5]; [18],328 ng/mL
same,Vd/F,[5]; [18],42.4 L
same,half-life,"[5]; human, plasma, po, 10 mg, 10 mg fasted, single oral dose, geometric mean, read-out: t1/2 (converted)",22.2 h
same,Tmax,"[5]; human, plasma, po, 10 mg, 10 mg fasted, single oral dose, median, read-out: Tmax",1 h
same,AUC(0-inf),[5]; [19],8530 ng·h/mL
same,AUC(0-t),[5]; [19],5860 ng·h/mL
same,Cmax,[5]; [19],234 ng/mL
same,Vd/F,[5]; [19],39.6 L
same,half-life,"[5]; human, plasma, po, 10 mg, 10 mg fed, single oral dose, geometric mean, read-out: t1/2 (converted)",23.4 h
same,Tmax,"[5]; human, plasma, po, 10 mg, 10 mg fed, single oral dose, median, read-out: Tmax",8 h
same,AUC(0-inf),[5]; [20],24600 ng·h/mL
same,AUC(0-t),[5]; [20],18400 ng·h/mL
same,Cmax,[5]; [20],961 ng/mL
same,Vd/F,[5]; [20],40.8 L
same,half-life,"[5]; human, plasma, po, 30 mg, 30 mg fasted, single oral dose, geometric mean, read-out: t1/2 (converted)",23.2 h
same,Tmax,"[5]; human, plasma, po, 30 mg, 30 mg fasted, single oral dose, median, read-out: Tmax",3.02 h
same,AUC(0-inf),[5]; [21],63400 ng·h/mL
same,AUC(0-t),[5]; [21],47800 ng·h/mL
same,Cmax,[5]; [21],2640 ng/mL
same,Vd/F,[5]; [21],47.7 L
same,half-life,"[5]; human, plasma, po, 90 mg, 90 mg fasted, single oral dose, geometric mean, read-out: t1/2 (converted)",23.3 h
same,Tmax,"[5]; human, plasma, po, 90 mg, 90 mg fasted, single oral dose, median, read-out: Tmax",2 h

# — patent US20260240851A1, “Treatment of Parkinson's Disease in a Patient Using a Glucocerebrosidase Activator” (BIAL - R&D Investments, S.A., priority 2023, published 2026)
